target: T1, human EP1 receptor (Homo sapiens, UniProt P34995); assay: Antagonist activity using cells expressing human EP1 receptor (SRE-luciferase reporter activity, PGE2 10 nM); type: cell-based; details: HEK293 cells stably expressing human EP1 receptor, 6 hours, read-out: IC50 value in the measurement of antagonist activity using human EP1 receptor expressing cells
T1 construct: expressed in transfected cells
T1 sequence (P34995 1-402): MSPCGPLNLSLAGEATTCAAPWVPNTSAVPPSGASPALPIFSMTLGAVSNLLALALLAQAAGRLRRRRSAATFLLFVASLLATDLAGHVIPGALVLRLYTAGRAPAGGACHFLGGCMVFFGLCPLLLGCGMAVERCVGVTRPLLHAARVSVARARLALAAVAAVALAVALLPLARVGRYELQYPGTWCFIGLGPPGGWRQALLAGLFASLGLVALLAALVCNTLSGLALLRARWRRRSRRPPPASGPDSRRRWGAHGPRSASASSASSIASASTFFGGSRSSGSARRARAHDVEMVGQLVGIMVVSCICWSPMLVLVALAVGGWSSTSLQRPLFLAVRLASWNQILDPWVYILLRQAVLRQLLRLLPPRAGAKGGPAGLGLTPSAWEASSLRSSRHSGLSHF
Source text: (§1) Measurement of an Antagonist Activity by Using Cells Expressing Human EP1 Receptor
As a result of searching Refseq Database for prostaglandin E receptor, genetic information of human EP1 (NM_000955) receptor was obtained. Based on this sequence information, human EP1 receptor gene was cloned by PCR using human cDNA as a template and by an ordinary method to give human EP1 receptor. Then, HEK293 in which the receptor is stably expressed was established, together with a reporter gene (SRE-Luciferase) in which serum responsible element (SRE) is added at the upstream region of firefly luciferase gene. The resulting cells were seeded to a 96 well plate (5×10^4 cells/well) and cultured for one day. To the plate, PGE2 (200 nM, final concentration 10 nM) and the test compound (in an amount of 1/20, 20× of the final concentration) were added to initiate the reaction. After allowing the reaction to proceed at 37° C. for 6 hours, the medium was aspirated off, added with a luminescent agent and the reporter activity was measured. […]

| SMILES | IC50 [µM] |
| --- | --- |
| Cc1ccccc1-c1nn(-c2nc(C(=O)O)cs2)c2ccccc12 [Exp.9] | ≤ 0.02 |
| O=C(O)c1ccc(-n2nc(-c3ccccc3)c3ccccc32)s1 [Exp.94] | 0.1 to 0.5 |
| O=C(O)c1csc(-n2nc(-c3ccccc3)c3c2CC(C(F)(F)F)CC3)n1 (stereo not drawn) [Exp.102] | ≤ 0.02 |
| O=C(O)c1csc(Cn2nc(-c3ccccc3)c3ccc(C(F)(F)F)cc32)n1 [Exp.104] | ≤ 0.02 |
| O=C(O)c1csc(-n2nc(C3=CCCCO3)c3ccc(C(F)(F)F)cc32)n1 [Exp.105] | ≤ 0.02 |
| O=C(O)c1csc(-n2nc(-c3ccccc3)c3ccc(C(F)(F)F)nc32)n1 [Exp.106] | ≤ 0.02 |
| O=C(O)c1ccc2c(-c3ccccc3)nn(-c3nc(C(=O)O)cs3)c2c1 [Exp.119, 2-(6-Carboxy-3-phenyl-1H-indazol-1-yl)thiazole-4-carboxylic acid] | ≤ 0.02 |
| CC(=O)Nc1ccc2c(-c3ccccc3)nn(-c3nc(C(=O)O)cs3)c2c1 [Exp.122] | 0.1 to 0.5 |
| CN(C)c1ccc2c(-c3ccccc3)nn(-c3nc(C(=O)O)cs3)c2c1 [Exp.154] | ≤ 0.02 |
| O=C(O)c1csc(-n2nc(-c3ccccc3)c3ccc(Sc4ccc(OC(F)(F)F)cc4)nc32)n1 [Exp.177] | 0.1 to 0.5 |
| O=C(O)c1csc(-n2nc(-c3ccccc3)c3ccc(Sc4cccc(C(F)(F)F)c4)nc32)n1 [Exp.179] | 0.02 to 0.1 |
| O=C(O)c1csc(-n2nc(-c3cccs3)c3ccccc32)n1 [Exp. 51] | 0.02 to 0.1 |
| O=C(O)c1csc(-n2nc(-c3ccccc3)c3ccc(NC(=O)C4CCCC4)cc32)n1 [Exp. 131] | 0.1 to 0.5 |
| CCC(C)S(=O)(=O)Nc1ccc2c(-c3ccccc3)nn(-c3nc(C(=O)O)cs3)c2c1 (stereo not drawn) [Exp. 142] | 0.1 to 0.5 |
| O=C(O)c1csc(-n2nc(-c3ccccc3)c3ccc(NCc4ccccc4F)cc32)n1 [Exp. 145] | 0.1 to 0.5 |
| O=C(O)c1csc(-n2nc(-c3ccccc3)c3ccc(NCc4ccccn4)cc32)n1 [Exp. 148] | 0.02 to 0.1 |
| O=C(O)c1csc(-n2nc(-c3ccccc3)c3ccc(NCc4cccnc4)cc32)n1 [Exp. 149] | 0.1 to 0.5 |
| O=C(O)c1csc(-n2nc(-c3ccccc3)c3ccc(NCC4CCOC4)cc32)n1 (stereo not drawn) [Exp. 150] | 0.1 to 0.5 |
| CCC(C)CNc1ccc2c(-c3ccccc3)nn(-c3nc(C(=O)O)cs3)c2c1 (stereo not drawn) [Exp. 151] | 0.1 to 0.5 |
| O=C(O)c1csc(-n2nc(-c3ccccc3)c3ccc(NCCc4ccccc4)cc32)n1 [Exp. 152] | 0.02 to 0.1 |
| O=C(O)c1csc(-n2nc(-c3ccccc3)c3ccc(Cl)cc32)n1 [Exp. 156] | ≤ 0.02 |
| O=C(O)c1csc(-n2nc(-c3ccccc3)c3ccc(Br)cc32)n1 [Exp. 157] | ≤ 0.02 |
| O=C(O)c1csc(-n2nc(-c3ccccc3)c3ccc(I)cc32)n1 [Exp. 158] | ≤ 0.02 |
| C/C=C/c1ccc2c(-c3ccccc3)nn(-c3nc(C(=O)O)cs3)c2c1 [Exp. 159] | ≤ 0.02 |
| C=Cc1ccc2c(-c3ccccc3)nn(-c3nc(C(=O)O)cs3)c2c1 [Exp. 162] | ≤ 0.02 |
| O=C(O)c1csc(-n2nc(-c3ccccc3)c3ccc(N4CCC4)nc32)n1 [Exp. 167] | 0.02 to 0.1 |
| O=C(O)c1csc(-n2nc(-c3ccccc3)c3ccc(SCc4ccccc4)nc32)n1 [Exp. 176] | 0.1 to 0.5 |
| O=C(O)c1csc(-n2nc(-c3ccccc3)c3ccc(Sc4cccc(O)c4)nc32)n1 [Exp. 178] | 0.02 to 0.1 |

Continued, values first:

| IC50 [µM] | SMILES |
| --- | --- |
| 0.02 to 0.1 | O=C(O)c1csc(Cn2nc(-c3ccccc3)c3ccccc32)n1 [Exp.7, 2-{(3-phenyl-1H-indazol-1-yl)methyl}thiazole-4-carboxylic acid] |
| 0.02 to 0.1 | O=C(O)c1csc(-n2nc(-c3cccc(O)c3)c3ccccc32)n1 [Exp.16] |
| 0.02 to 0.1 | C=Cc1ccc2c(-c3ccccc3)nn(-c3nc(C(=O)OCC)cs3)c2c1 [Exp.116, Ethyl 2-(3-phenyl-6-vinyl-1H-indazol-1-yl)thiazole-4-carboxylate] |
| ≤ 0.02 | O=C(O)c1csc(-n2nc(-c3ccccc3)c3ncc(C(F)(F)F)cc32)n1 [Exp.164] |
| 0.02 to 0.1 | N#Cc1ccc2c(-c3ccccc3)nn(-c3nc(C(=O)O)cs3)c2c1 [Exp. 118, 2-(6-Cyano-3-phenyl-1H-indazol-1-yl)thiazole-4-carboxylic acid] |
| 0.1 to 0.5 | Cn1cncc1C(=O)Nc1ccc2c(-c3ccccc3)nn(-c3nc(C(=O)O)cs3)c2c1 [Exp. 130] |
| 0.1 to 0.5 | O=C(O)c1csc(-n2nc(-c3ccccc3)c3ccc(NC(=O)C45CC6CC(CC(C6)C4)C5)cc32)n1 [Exp. 133] |
| 0.1 to 0.5 | O=C(O)c1csc(-n2nc(-c3ccccc3)c3ccc(NC(=O)C4CC4)cc32)n1 [Exp. 135] |
| 0.1 to 0.5 | CC(C)S(=O)(=O)Nc1ccc2c(-c3ccccc3)nn(-c3nc(C(=O)O)cs3)c2c1 [Exp. 141] |
| 0.1 to 0.5 | O=C(O)c1csc(-n2nc(-c3ccccc3)c3ccc(NCc4cccc(F)c4)cc32)n1 [Exp. 146] |
| 0.1 to 0.5 | O=C(O)c1csc(-n2nc(-c3ccccc3)c3ccc(NCc4ccc(F)cc4)cc32)n1 [Exp. 147] |
| ≤ 0.02 | C/C=C\c1ccc2c(-c3ccccc3)nn(-c3nc(C(=O)O)cs3)c2c1 [Exp. 160] |
| 0.1 to 0.5 | CCSc1ccc2c(-c3ccccc3)nn(-c3nc(C(=O)O)cs3)c2n1 [Exp. 165] |
| 0.1 to 0.5 | CC(C)C(C)Sc1ccc2c(-c3ccccc3)nn(-c3nc(C(=O)O)cs3)c2n1 (stereo not drawn) [Exp. 166] |
| 0.02 to 0.1 | O=C(O)c1csc(-n2nc(-c3ccccc3)c3ccc(Sc4ccccc4F)nc32)n1 [Exp. 175] |

target: T1, human EP1 receptor; assay: Antagonist activity using cells expressing human EP1 receptor (intracellular Ca2+ assay, Fura 2-AM); type: cell-based; details: HEK293 cells stably expressing human EP1 receptor, PGE2 10 nM
Description: as §1
Cells expressing human EP1 receptor were suspended in an assay buffer to the concentration of 5×10^6 cells/ml, added with Puronic F-127 (final concentration 0.2%), and Fura 2-AM (final concentration 5 uM), followed by incubation at 37° C. for 30 minutes. After washing twice with the assay buffer, the cells were again suspended in the assay buffer to 1×10^6 cells/60 ul, and then transferred to a 96 well UV plate (1×10^6 cells/60 ul/well). Thereafter, by using a fluorescent chemical screening system (FDSS4000, Hamamatsu Photonics K.K.), intracellular Ca^2+ concentration was measured after adding 20 ul of each of the test compounds and PGE2 (5× of the final concentration for both). Ca^2+ concentration was measured by determining fluorescence intensity after irradiation with two excitation wavelengths, i.e., 340 and 380 nm.
Furthermore, EP1 antagonist activity was calculated as a ratio (%) of inhibiting increase in intracellular Ca^2+ concentration by PGE2 (10 nM).
Assay buffer: 20 mM HEPES/KOH (pH 7.4), 115 mM NaCl, 5.4 mM KCl, 0.8 mM MgCl2, 0.8 mM CaCl2, 13.8 mM D-glucose, 0.1% BSA

| IC50 [µM] | SMILES |
| --- | --- |
| 0.1 to 0.3 | Cc1ccccc1-c1nn(-c2nc(C(=O)O)cs2)c2ccccc12 [Exp.9] |
| 0.1 to 0.3 | O=C(O)c1csc(-n2nc(-c3cccc(O)c3)c3ccccc32)n1 [Exp.16] |
| ≤ 0.1 | O=C(O)c1csc(-n2nc(C3=CCCCO3)c3ccc(C(F)(F)F)cc32)n1 [Exp.105] |
| ≤ 0.1 | O=C(O)c1csc(-n2nc(-c3ccccc3)c3ccc(C(F)(F)F)nc32)n1 [Exp.106] |

target: T1, human EP1 receptor; assay: Receptor binding test using cells expressing human EP1 receptor ([3H]PGE2 binding inhibition, membrane fraction); details: membrane fraction of HEK293 cells expressing human EP1 receptor, [3H]PGE2 1 nM; read-out: Ki value in the measurement of [3H]PGE2 binding inhibitory activity
Description: Receptor Binding Test Using Cells Expressing Human EP1 Receptor
Inhibitory activity of the test compounds on binding of [^3H]PGE2 in HEK293 cells stably expressing human EP1 receptor was measured.
HEK293 cells, which stably express human EP1 receptor, were established by using the gene for human EP1 receptor, and then a membrane fraction was prepared therefrom. Thus-prepared membrane fraction was incubated at 30° C. for 90 minutes with a reaction solution (200 μL/well) which includes the test compound and [^3H]PGE2. Upon the completion of the reaction, the reaction solution was aspirated off under reduced pressure, and the [^3H]PGE2 bound to the membrane fraction was trapped by using Unifilter Plateg CF/C (manufactured by Packard) and the bound radioactivity was counted with a liquid scintillator.
Kd value was obtained from a Scatchard plot. Non-specific binding was obtained from the binding in the presence of an excess amount (10 μM) of non-labeled PGE2. For the measurement of an inhibitory activity of the test compound on [^3H]PGE2 binding, [^3H]PGE2 (1 nM) and various concentrations of the test compound were added. Meanwhile, for all of the reactions, the buffer as described below was used.
Buffer; 10 mM MES/NaOH (pH 6.0), 10 mM MgCl2, 1 mM EDTA, 0.1% BSA
Dissociation constant of the compounds, i.e., Ki, was obtained according to the following equation. […]

| Ki [µM] | SMILES |
| --- | --- |
| ≤ 0.1 | O=C(O)c1csc(-n2nc(C3=CCCCO3)c3ccc(C(F)(F)F)cc32)n1 [Exp.105] |
| ≤ 0.1 | O=C(O)c1csc(-n2nc(-c3ccccc3)c3ccc(C(F)(F)F)nc32)n1 [Exp.106] |

system: SD rats; assay: Action of extending interval of micturition in rat in wakefulness II (0.3% acetic acid-induced cystitis); type: in vivo; details: male SD rats in wakefulness, 0.3% acetic acid cystitis, intravenous
Source text: SD rats (Charles River Laboratories Japan, Inc., male) were employed as experimental animals. Each rat was put under anesthesia by inhalation of 2% isoflurane (laughing gas:oxygen=7:3), and then was fixed in the supine position. Anesthesia was maintained by the inhalation of 2% isoflurane. The abdominal part was incised along the midline, and the urinary bladder was exposed from the intraperitoneal cavity. The vertex vesicae part was subjected to a small incision, and a polyethylene tube (PE-50: Becton Dickinson and Company) was inserted into the bladder and fixed. […] Thereafter, while physiological saline warmed to 37° C. was injected to the other end of the tube inserted into the bladder through one branch of a three-way stopcock at a rate of 3.0 mL/hr, the internal pressure of the bladder was continuously recorded from another branch using a pressure amplifier through a pressure transducer. The excreted urine was cumulatively accumulated in a vessel on a digital balance, and the weight change was simultaneously measured. […] The value obtained before the administration was taken from an average value of the values measured for 30 minutes before the administration, and the value obtained after the administration was taken from an average value of the values measured for 60 minutes immediately after the administration. […]

| SMILES | amount of micturition |
| --- | --- |
| O=C(O)c1csc(-n2nc(-c3ccccc3)c3ccc(C(F)(F)F)cc32)n1 [Exp.77] | increase in the amount of micturition |

same assay, conditions: male SD rats in wakefulness, 0.3% acetic acid cystitis, intravenous, 60 minutes after administration

| SMILES | micturition interval extension [%] |
| --- | --- |
| O=C(O)c1csc(-n2nc(-c3ccccc3)c3ccc(C(F)(F)F)cc32)n1 [Exp.77] | ≥ 30 |
